Data as given in patent publication US20140228682A1, “IMAGING PROBES, IMAGING SYSTEMS, AND METHODS OF IMAGING” (priority 2013, published 2014).

Tests used:
cartilage [1] = test: small animal PET imaging of cartilage / osteoarthritis joints in mice; assay type: in vivo
Protocol: The mice were injected with ^89Zirconium oxalate through tail vein and then imaged by small animal PET.
(§1) The mice were injected with tracer through tail vein and then imaged at 5 days post-injection by small animal PET (left two columns of images) and optical imaging instrument (in vivo and ex vivo) (right two columns images).

cartilage [2] = test: optical (Cerenkov) imaging of joints in mice, in vivo and ex vivo; settings: FIG. 3, tail vein injection, 5 days post-injection, optical imaging instrument (in vivo and ex vivo)
Protocol: as §1

[3] = FIG. 3, tail vein injection, 5 days post-injection

^89Zr oxalate
low signal: signal in OA joints (cartilage [1]; FIG. 2, tail vein injection) | signal in OA joints (cartilage [1]; [3]) | signal in OA joints (cartilage [2])
high signal: signal in sham and untreated joints (cartilage [1]; FIG. 2, tail vein injection) | signal in sham and untreated joints (cartilage [1]; [3]) | signal in sham and untreated joints (cartilage [2])
